From patent US9963496B2, “Stable glucagon analogues and use for treatment of hypoglycaemia” (Novo Nordisk A/S, priority 2014, dated 2018)
*1 amine or outer side, *2 acyl side, *3 side chain or, on linkers, in order; H or OH if unused. Where a SMILES comes first, the peptide text is derived from it. Side-chain parts run from the residue outwards. The star is where a group is joined. γGlu = O=C(O)[C@H](CCC(=O)[*:2])N[*:1]; Desaminohistidyl = O=C(CCc1c[nH]cn1)*

Key:
human glucagon receptor = target: T1, human glucagon receptor (Homo sapiens, UniProt P47871); assay: Assay (I)(b): glucagon receptor activation, CRE luciferase reporter gene assay in BHK cells; format: cell-based; settings: BHK cells expressing human glucagon receptor and CRE luciferase, 3 h incubation; read-out: EC50 hGlucagonR
T1 construct: expressed in transfected cells; host or cells: BHK cells, clone BHK hGCGR A3*25; isolated membranes
Experimental: The purpose of this assay is to test the activity, or potency, of the derivatives of the invention, in vitro. The in vitro potency is the measure of human GLP-1 receptor and/or glucagon receptor activation, respectively, in a whole cell assay.
In vitro potency was determined by measuring the response of human GLP-1 or glucagon receptor, respectively, in a reporter gene assay. The assay was performed in a stably transfected BHK cell line that expressed either the human GLP-1 receptor or the human glucagon receptor and contained the DNA for the cAMP response element (CRE) coupled to a promoter and the gene for firefly luciferase (CRE luciferase). […] When assay incubation was completed, the luciferase substrate (luciferin) was added and the enzyme converted luciferin to oxyluciferin and produced bioluminescence. The luminescence was measured as the readout for the assay.
(b) Glucagon Receptor Activation
The cells used in this assay (clone pLJ6′-4-25) were BHK cells with BHK570 as a parent cell line expressing the CRE luciferase gene (clone BHK/KZ10-20-48) and were established by further transfection with the human glucagon receptor (clone pLJ6′ in pHZ-1 vector).
The cells were cultured at 5% CO2 in DMEM medium with 10% FBS, 1× GlutaMAX, 1 mg/mL G418, 240 nM MTX (methotrexate) and 1% pen/strep (penicillin/streptomycin). They were aliquoted and stored in liquid nitrogen. Before each assay, an aliquot was taken up and washed three times in PBS before being suspended at the desired concentration in assay buffer. For 96-well plates the suspension was made to give a final concentration of 5×10 EE3 cells/well.
Assay Medium consisted of DMEM w/o phenol red, 10 mM Hepes, lx GlutaMAX, 2% Ovalbumin and 0.2% Pluronic F-68.
Cell stocks were thawed in a 37° C. water bath. Cells were washed three times in PBS. The cells were counted and adjusted to 5×10 EE3 cells/50 μl (1×10 EE5 cells/mL) in Assay Medium. A 50 μl aliquot of cells was transferred to each well in the assay plate.
Stocks of the test compounds and reference compounds were diluted to a concentration of […] in Assay Medium. Compounds were diluted 10-fold to give the following concentrations: […], 2×10 EE-7 M, 2×10 EE-8 M; 2×10 EE-9 M, 2×10 EE-10 M, 2×10 EE-11 M, 2×10 EE-12 M and 2×10 EE-13 M. For each compound a blank assay buffer control was also included.
A 50 μl aliquot of compound or blank was transferred from the dilution plate to the assay plate. Compounds were tested at the following final concentrations: 1×10 EE-6 M, 1×10 EE-7 M, 1×10 EE-8 M; 1×10 EE-9 M, 1×10 EE-10 M, 1×10 EE-11 M and 1×10 EE-12 M and 1×10 EE-13 M.
The assay plate was incubated for 3 h in a 5% CO2 incubator at 37° C. The assay plate was removed from the incubator and allowed to stand at room temperature for 15 min. A 100 μl aliquot of steadylite plus reagent was added to each well of the assay plate (reagent is light sensitive). Each assay plate was covered with aluminum foil to protect it from light and shaken for 30 min at room temperature. Each assay plate was read in a Packard TopCount NXT instrument.
The data from the TopCount instrument was transferred to GraphPad Prism software. The software performed a non-linear regression (log(agonist) vs response-Variable slope (four parameter)). EC50 values were calculated by the software and reported in pM.

physchem = format: physicochemical; settings: pH 7.5
Description: Assay (III): ThT Fibrillation Assay for the Assessment of Physical Stability of Peptide Compositions The purpose of this assay is to assess the physical stability of the glucagon derivatives of the invention in aqueous solutions. Low physical stability of a peptide may lead to amyloid fibril formation, which is observed as well-ordered, thread-like macromolecular structures in the sample, which eventually may lead to gel formation. This has traditionally been measured by visual inspection of the sample. However, that kind of measurement is very cumbersome and depending on the observer. Therefore, the application of a small molecule indicator probe is much more advantageous. Thioflavin T (ThT) is such a probe and has a distinct fluorescence signature when binding to fibrils [Naiki et al. (1989) Anal. Biochem. 177, 244-249; LeVine (1999) Methods. Enzymol. 309, 274-284]. Here, as depicted in FIG. 1, F is the ThT fluorescence at the time t. The constant t0 is the time needed to reach 50% of maximum fluorescence. The two important parameters describing fibril formation are the lag-time calculated by t0−2τ and the apparent rate constant kapp 1/τ. Samples were prepared freshly before each assay. Each sample composition is described in the legends. The pH of the sample was adjusted to the desired value using appropriate amounts of concentrated NaOH and HCl. Thioflavin T was added to the samples from a stock solution in H2O to a final concentration of 1 μM. Sample aliquots of 200 μl (250 μM of the glucagon derivative/analogue in 10 mM HEPES buffer, pH 7.5) were placed in a 96 well microtiter plate (Packard OptiPlate™-96, white polystyrene). Usually, four or eight replica of each sample (corresponding to one test condition) was placed in one column of wells. The plate was sealed with Scotch Pad (Qiagen). Incubation at given temperature, shaking and measurement of the ThT fluorescence emission were done in a Fluoroskan Ascent FL fluorescence platereader (Thermo Labsystems). The plate was incubated 37° C. with orbital shaking adjusted to 960 rpm with an amplitude of 1 mm. Fluorescence measurement was done using excitation through a 444 nm filter and measurement of emission through a 485 nm filter. Each run was initiated by incubating the plate at the assay temperature for 10 min. The plate was measured every 20 minutes for a desired period of time. Between each measurement, the plate was shaken and heated as described. After completion of the ThT assay the four or eight replica of each sample was pooled and centrifuged at 20000 rpm for 30 minutes at 18° C. The supernatant was filtered through a 0.22 μm filter and an aliquot was transferred to a HPLC vial. The concentration of peptide in the initial sample and in the filtered supernatant was determined by reverse phase HPLC using an appropriate standard as reference. The percentage fraction the concentration of the filtered sample constituted of the initial sample concentration was reported as the recovery. The measurement points were saved in Microsoft Excel format for further processing and curve drawing and fitting was performed using GraphPad Prism. The background emission from ThT in the absence of fibrils was negligible. The data points were typically a mean of four or eight samples and shown with standard deviation error bars. Only data obtained in the same experiment (i.e. samples on the same plate) were presented in the same graph ensuring a relative measure of fibrillation between experiments. The data set may be fitted to Eq. (1).

T1 sequence (P47871 26-477): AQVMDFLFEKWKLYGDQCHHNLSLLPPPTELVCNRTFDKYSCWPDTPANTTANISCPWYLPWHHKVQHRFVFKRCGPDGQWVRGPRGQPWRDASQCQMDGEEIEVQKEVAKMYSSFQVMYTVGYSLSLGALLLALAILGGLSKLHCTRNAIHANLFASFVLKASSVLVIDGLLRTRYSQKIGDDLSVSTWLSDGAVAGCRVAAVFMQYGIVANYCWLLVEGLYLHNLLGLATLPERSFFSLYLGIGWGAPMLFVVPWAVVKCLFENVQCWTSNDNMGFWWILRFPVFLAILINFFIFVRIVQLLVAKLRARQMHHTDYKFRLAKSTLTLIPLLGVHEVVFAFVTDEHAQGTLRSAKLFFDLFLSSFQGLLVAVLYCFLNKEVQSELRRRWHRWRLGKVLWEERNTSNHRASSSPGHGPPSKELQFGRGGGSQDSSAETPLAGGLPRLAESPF

SMILES: CC(=O)N[C@@H](CCC(=O)N[C@@H](CCC(=O)N[C@@H](CCC(=O)N[C@@H](CCC(=O)NCCCC[C@H](NC(=O)[C@H](CC(C)C)NC(=O)[C@H](CC(C)C)NC(=O)[C@H](Cc1c[nH]c2ccccc12)NC(=O)[C@H](CCC(N)=O)NC(=O)[C@@H](NC(=O)[C@H](Cc1ccccc1)NC(=O)[C@H](CCC(=O)O)NC(=O)[C@H](CCC(N)=O)NC(=O)[C@H](C)NC(=O)[C@H](CCCNC(=N)N)NC(=O)[C@H](CCCNC(=N)N)NC(=O)[C@H](CO)NC(=O)[C@H](CCC(=O)O)NC(=O)[C@H](CC(C)C)NC(=O)[C@H](Cc1ccc(O)cc1)NC(=O)[C@H](CCCCN)NC(=O)[C@H](CO)NC(=O)[C@H](Cc1ccc(O)cc1)NC(=O)[C@H](CC(=O)O)NC(=O)[C@H](CO)NC(=O)[C@@H](NC(=O)[C@H](Cc1ccccc1)NC(=O)[C@@H](NC(=O)CNC(=O)[C@H](Cc1c[nH]cn1)NC(=O)[C@H](CO)NC(=O)CCc1c[nH]cn1)[C@@H](C)O)[C@@H](C)O)C(C)C)C(=O)N[C@H](C(=O)O)[C@@H](C)O)C(=O)O)C(=O)O)C(=O)O)C(=O)O [Example 14, N^ϵ28-[(4S)-4-[[(4S)-4-[[(4S)-4-[[(4S)-4-acetamido-4-carboxybutanoyl]amino]-4-carboxybutanoyl]amino]-4-carboxybutanoyl]amino]-4-carboxybutanoyl]-[Imp1, His3, Glu15, Glu21, Leu27, Lys28]-Glucagon] (Desaminohistidyl-SHGTFTSDYSKYLESRRAQEFVQWLLK([γGlu-γGlu-γGlu-γGlu-Ac])T-OH)
- EC50 (human glucagon receptor): 6 pM
- recovery at 250 μM (physchem): 98%

SMILES: CC(=O)N[C@@H](CCC(=O)N[C@@H](CCC(=O)N[C@@H](CCC(=O)N[C@@H](CCC(=O)NCCCC[C@H](NC(=O)[C@@H](NC(=O)[C@H](Cc1ccccc1)NC(=O)[C@H](CCC(=O)O)NC(=O)[C@H](CCC(N)=O)NC(=O)[C@H](C)NC(=O)[C@H](CCCNC(=N)N)NC(=O)[C@H](CCCNC(=N)N)NC(=O)[C@H](CO)NC(=O)[C@H](CCC(=O)O)NC(=O)[C@H](CC(C)C)NC(=O)[C@H](Cc1ccc(O)cc1)NC(=O)[C@H](CCCCN)NC(=O)[C@H](CO)NC(=O)[C@H](Cc1ccc(O)cc1)NC(=O)[C@H](CC(=O)O)NC(=O)[C@H](CO)NC(=O)[C@@H](NC(=O)[C@H](Cc1ccccc1)NC(=O)[C@@H](NC(=O)CNC(=O)[C@H](Cc1c[nH]cn1)NC(=O)[C@H](CO)NC(=O)CCc1c[nH]cn1)[C@@H](C)O)[C@@H](C)O)C(C)C)C(=O)N[C@@H](Cc1c[nH]c2ccccc12)C(=O)N[C@@H](CC(C)C)C(=O)N[C@@H](CC(C)C)C(=O)N[C@@H](CCC(=O)O)C(=O)N[C@H](C(=O)O)[C@@H](C)O)C(=O)O)C(=O)O)C(=O)O)C(=O)O [Example 22, N^ϵ24-[(4S)-4-[[(4S)-4-[[(4S)-4-[[(4S)-4-acetamido-4-carboxybutanoyl]amino]-4-carboxybutanoyl]amino]-4-carboxybutanoyl]amino]-4-carboxybutanoyl]-[Imp1, His3, Glu15, Glu21, Lys24, Leu27, Glu28]-Glucagon] (Desaminohistidyl-SHGTFTSDYSKYLESRRAQEFVK([γGlu-γGlu-γGlu-γGlu-Ac])WLLET-OH)
- EC50 (human glucagon receptor): 17 pM
- recovery at 250 μM (physchem): 100%

SMILES: CC(=O)N[C@@H](CCC(=O)N[C@@H](CCC(=O)N[C@@H](CCC(=O)N[C@@H](CCC(=O)N[C@@H](CCC(=O)NCCCC[C@H](NC(=O)[C@@H](NC(=O)[C@H](Cc1ccccc1)NC(=O)[C@H](CCC(=O)O)NC(=O)[C@H](CCC(N)=O)NC(=O)[C@H](C)NC(=O)[C@H](CCCNC(=N)N)NC(=O)[C@H](CCCNC(=N)N)NC(=O)[C@H](CO)NC(=O)[C@H](CCC(=O)O)NC(=O)[C@H](CC(C)C)NC(=O)[C@H](Cc1ccc(O)cc1)NC(=O)[C@H](CCCCN)NC(=O)[C@H](CO)NC(=O)[C@H](Cc1ccc(O)cc1)NC(=O)[C@H](CC(=O)O)NC(=O)[C@H](CO)NC(=O)[C@@H](NC(=O)[C@H](Cc1ccccc1)NC(=O)[C@@H](NC(=O)CNC(=O)[C@H](Cc1c[nH]cn1)NC(=O)[C@H](CO)NC(=O)CCc1c[nH]cn1)[C@@H](C)O)[C@@H](C)O)C(C)C)C(=O)N[C@@H](Cc1c[nH]c2ccccc12)C(=O)N[C@@H](CC(C)C)C(=O)N[C@@H](CC(C)C)C(=O)N[C@@H](CO)C(=O)N[C@H](C(=O)O)[C@@H](C)O)C(=O)O)C(=O)O)C(=O)O)C(=O)O)C(=O)O [Example 19, N^ϵ24-[(4S)-4-[[(4S)-4-[[(4S)-4-[[(4S)-4-[[(4S)-4-acetamido-4-carboxybutanoyl]amino]-4-carboxybutanoyl]amino]-4-carboxybutanoyl]amino]-4-carboxybutanoyl]amino]-4-carboxybutanoyl]-[Imp1, His3, Glu15, Glu21, Lys24, Leu27, Ser28]-Glucagon] (Desaminohistidyl-SHGTFTSDYSKYLESRRAQEFVK([γGlu-γGlu-γGlu-γGlu-γGlu-Ac])WLLST-OH)
- EC50 (human glucagon receptor): 6 pM
- recovery at 250 μM (physchem): 104%
